# Reference: the supplement of paper PMC10307832
# Legend:
# Test in all cases: relative viability (nuclei count vs DMSO), 5 days (fraction); higher = more cells survive
# [1] = compound: C1COCCN1CC2=CC(=O)C(=CO2)OCCCCCSC3=C4C=CC(=CC4=NC=C3)C(F)(F)F [EHT 1864] + COc1cc2c(Oc3ccc(NC(=O)C4(C(=O)Nc5ccc(F)cc5)CC4)cc3F)ccnc2cc1OCCCN1CCOCC1 [Foretinib] (partner 0.25 µM)
# Method in brief: (§1)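 Cells from lung cancer lines were seeded into 1536-well plates and, one day later, dosed by pin tool. Treatments were either a single drug or a fixed dose of an anchor drug with five library-drug doses (not always all listed) in √10 steps. After 5 days, nuclei were stained in a one-step fixation (final 0.05% Triton X-100, 1% formaldehyde, 1 ug/ml Hoechst) and counted on 4× images, and relative viability is the treated-to-vehicle nuclei ratio, as the median of duplicate plates.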
# [2] = compound: C1COCCN1CC2=CC(=O)C(=CO2)OCCCCCSC3=C4C=CC(=CC4=NC=C3)C(F)(F)F [EHT 1864] + CS(=O)(=O)N1CCN(Cc2cc3nc(-c4cccc5[nH]ncc45)nc(N4CCOCC4)c3s2)CC1 [Pictilisib] (partner 1 µM)
# Method in brief: as §1
# [3] = compound: C1COCCN1CC2=CC(=O)C(=CO2)OCCCCCSC3=C4C=CC(=CC4=NC=C3)C(F)(F)F [EHT 1864] + NC(=O)Nc1cc(-c2cccc(F)c2)sc1C(=O)N[C@H]1CCCNC1 [AZD7762] (partner 0.2 µM)
# Method in brief: as §1
# [4] = compound: C1COCCN1CC2=CC(=O)C(=CO2)OCCCCCSC3=C4C=CC(=CC4=NC=C3)C(F)(F)F [EHT 1864] + O=C(CCCCCCC(=O)Nc1ccccc1)NO [Vorinostat] (partner 1 µM)
# Method in brief: as §1
Cell Line,relative viability ([1]; first compound 0.04 µM),relative viability ([1]; first compound 0.1265 µM),relative viability ([1]; first compound 0.4 µM),relative viability ([1]; first compound 4 µM),relative viability ([2]; first compound 0.04 µM),relative viability ([2]; first compound 0.1265 µM),relative viability ([2]; first compound 0.4 µM),relative viability ([2]; first compound 1.265 µM),relative viability ([2]; first compound 4 µM),relative viability ([3]; first compound 0.04 µM),relative viability ([3]; first compound 0.1265 µM),relative viability ([3]; first compound 0.4 µM),relative viability ([3]; first compound 1.265 µM),relative viability ([3]; first compound 4 µM),relative viability ([4]; first compound 0.04 µM),relative viability ([4]; first compound 0.1265 µM),relative viability ([4]; first compound 0.4 µM),relative viability ([4]; first compound 1.265 µM),relative viability ([4]; first compound 4 µM),relative viability ([1]; first compound 1.265 µM)
NCI-H1975,0.933,0.98,0.883,0.876,0.304,0.305,0.278,0.269,0.301,0.733,0.717,0.676,0.642,0.68,0.726,0.673,0.677,0.654,0.644,–
NCI-H1437,1.31,1.22,1.2,0.824,0.438,0.47,0.418,0.492,0.397,1.1,1.1,1.09,1.02,0.889,0.84,0.866,0.757,0.542,0.479,1.03
NCI-H1651,0.836,0.757,0.845,0.827,0.537,0.562,0.555,0.563,0.492,0.396,0.439,0.469,0.482,0.556,0.55,0.541,0.554,0.561,0.599,0.691
LCLC-103H,0.791,0.618,0.736,0.733,0.656,0.482,0.667,0.661,0.547,0.823,0.686,0.818,0.698,0.5,0.758,0.666,0.791,0.779,0.712,0.637
NCI-H1666,0.999,0.917,0.894,0.998,0.533,0.442,0.501,0.545,0.575,0.826,0.747,0.915,0.997,1.1,1.02,0.987,0.899,0.986,1.05,0.948
NCI-H1734,0.911,–,0.706,0.826,0.485,0.455,0.455,0.452,0.418,0.65,0.427,0.537,0.611,0.618,0.94,0.532,0.818,0.751,0.837,0.961
EPLC-272H,0.684,0.575,0.694,0.875,0.307,0.275,0.446,0.166,0.278,0.387,0.379,0.267,0.259,0.236,0.454,0.565,0.567,0.662,0.33,0.887
BEN,0.702,0.585,0.827,0.771,0.523,0.532,0.589,0.576,0.61,0.681,0.632,0.86,0.665,0.802,0.528,0.579,0.636,0.648,0.57,0.484
